In patent publication US8110655B2, “Method to promote hair growth and/or delay or treat hair loss by administering a TGF-β antagonist or inhibitor” (Auxagen, Inc., priority 2006, dated 2012):
“Also recorded” adds a separate entry of the source.

Assays:
[1] = tested on: TGF-β; assay: TGF-β antagonist activity of C44S/C48S variants (test not specified); conditions: C44S/C48S versions versus parent peptides
Description: In another embodiment of the invention variants of peptantagonists β3^25 (41-65) (SEQ ID NO: 4), β2^25 (41-65) (SEQ ID NO: 5), and β3^25 (41-65) (SEQ ID NO: 6), are provided in which cysteine-44 and cysteine-48 were replaced by serine residues.

[2] = Stability in solution / in IntraSite gel during storage; conditions: C44S/C48S versions versus parent peptides
Description: One milliliter of sterile 3 mM each of TGF-β peptantagonist 6-E-β1^25 (SEQ ID NO: 7), in phosphate-buffered saline (PBS) or 1 ml of sterile PBS (vehicle) was vigorously mixed with 3 ml of IntraSite gel using two 10 ml syringes connected with a three-way connector.

[3] = tested on: mink lung epithelial cells; conditions: mink lung epithelial cells and other cell types; U.S. Pat. No. 6,500,920; cited from earlier work
[4] = tested on: PAI-1; conditions: mink lung epithelial cells and other cell types; U.S. Pat. No. 6,500,920; cited from earlier work
[5] = tested on: TGF-β receptors in mink lung epithelial cells; conditions: earlier finding of the inventors (U.S. Pat. No. 6,500,920); cited from earlier work
[6] = tested on: full-thickness burn wounds on pig skin; assay: Hair growth in full-thickness pig skin burn wound model; type: in vivo, pig (Yorkshire strain); conditions: for hair growth, % of the original pre-burn area: topical, full-thickness burn, postburn day 30
Description: TGF-β peptantagonists with amino acid sequences corresponding to residues 41-65 of TGF-β1 (SEQ ID NO: 8) and TGF-β2 (SEQ ID NO: 9), and TGF-β peptantagonist 6-β1^25 (SEQ ID NO: 7), which have additional 6 glutamate residues at the N-termini were synthesized and purified as described previously. Sterile IntraSite gel was obtained from Smith and Nephew Medical, Ltd. (UK) and mixed with TGF-β peptantagonists in phosphate-buffered saline at a ratio of 3:1 (v/v).
Female pigs (Yorkshire strain, house inbred and specific pathogen-free) weighing 20-25 kg were used in the experiments. The pigs were housed in individual rooms. They were fed standard laboratory chow and water ad libitum. All study protocols were reviewed and approved by the respective institutional animal care committees.
Four pigs weighing 20-25 kg were anesthetized by intramuscular injection of ketamine (5 mg/kg), strenil (cazaporonum) (20 mg/kg), and atropine ([…]). Six uniform burn wounds (110° C., 30 s) were then made symmetrically on the back of each pig using a modified soldering iron with a flat contact area of 20 cm^2. […] After wounding, IntraSite gels containing 6-E-β1^25 and buffer vehicle (as control) were applied to the pig burn wounds. All wounds were dressed with paraffin gauze. TGF-β peptantagonist gel or control gel was applied to the wounds every 2 days for the first 10 days and twice a week for the next 30 days. All wounds were cleaned and measured before each application of the IntraSite gel.
Hair growth was assessed by measuring hair number and hair length in the burn lesion and around the lesion area. Hair growth was monitored every 2 days for the first 10 days and twice a week for 30 more days. Hair growth expressed as a percent of the original wound size was calculated.
The pig model is commonly used in skin injury (e.g., burn) experiments because porcine skin is anatomically very similar to human skin. It was used to determine the ability of 6-E-β1^25 peptantagonist to rescue or restore hair follicles and to promote hair growth in a standardized burn injury. Four pigs weighing 20-25 kg were anesthetized by intramuscular injection of ketamine (5 mg/kg). A soldering iron with a flat contact area of ˜20 cm^2 was used to generate full-thickness burn wounds (110° C., 30 s) at standard sites on the skin of the back. Six thermal burns (three on each side) were created on each pig. After wounding, two lesions were treated with a thin layer of IntraSite gel containing 6-E-β1^25 (SEQ ID NO: 7) (0.15 and 0.6 mM); two received gel alone and two received no topical applications. All wounds were then bandaged and protected from potential contact irritation with a fixed frame. 6-E-β1^25 (SEQ ID NO: 7) and vehicle gels were applied every 2 days for the first 10 days and twice a week for the next 30 days, at which time hair growth was measured and photographed. Each animal served as its own control. […] At 0.15 and 0.6 mM, 6-E-β1^25 (SEQ ID NO: 7) promoted hair growth of 5-10 and 30-40% of the original pre-burn area, respectively.

Row | Substance | TGF-β antagonist activity compared with the cysteine-containing peptantagonists [1] | block of TGF-β-induced growth inhibition [3] | block of TGF-β-induced expression of PAI-1 [4] | inhibition of binding of radiolabeled TGF-β1, TGF-β2 and TGF-β3 to TGF-β receptors [5] | also measured
1 | β3^25 C44S/C48S: variant of β3^25 (41-65) in which cysteine-44 and cysteine-48 were replaced by serine residues (ANFSSGPSPYLRSADTTHSTVLGLY; listed as Homo Sapiens) | the same TGF-β antagonist activity |  |  |  | stability in solution during storage [2]: better stability in solution during storage
2 | β2^25 C44S/C48S: variant of β2^25 (41-65) in which cysteine-44 and cysteine-48 were replaced by serine residues (ANFSAGASPYLWSSDTQHSRVLSLY; listed as Homo Sapiens) | the same TGF-β antagonist activity |  |  |  | stability in solution during storage [2]: better stability in solution during storage
3 | β1^25 (41-65): chemically synthesized peptide corresponding to the 41st to 65th amino acid residues of TGF-β1 |  | block | block | inhibit | 
4 | β2^25 (41-65): chemically synthesized peptide corresponding to the 41st to 65th amino acid residues of TGF-β2 (ANFCAGACPYLWSSDTQHSRVLSLY; listed as Homo Sapiens) |  | block | block | inhibit | 
5 | 6-E-β1^25: β1^25 C44S/C48S derivitized with 6 glutamate at the N-terminus (EEEEEEANFSLGPSPYIWSLDTQYSKVLALY; six N-terminal glutamates; listed as Homo Sapiens) |  |  |  |  | hair growth, % of the original pre-burn area ([6]; 0.15 mM in IntraSite gel): 5-10%; hair growth, % of the original pre-burn area ([6]; 0.6 mM in IntraSite gel): 30-40%; promotion of hair growth (effective concentrations, dose dependence) ([6]; 0.15 and 0.6 mM in IntraSite gel): effective in promoting hair growth; also recorded: promote hair growth in a dose-dependent manner; hair growth in the area surrounding the burn wound ([6]; 0.15 and 0.6 mM, topical gel): promoted hair growth in the area surrounding the burn wound; re-epithelialization and hair growth of treated wounds ([6]; postburn day 30, topical gel): exhibited re-epithelialization and hair growth
6 | NH2-ANFSLGPSPYIWSLDTQYSKVLALY-COOH (H-ANFSLGPSPYIWSLDTQYSKVLALY-OH; listed as Homo Sapiens) [β1^25 C44S/C48S, variant of β1^25 (41-65) in which cysteine-44 and cysteine-48 were replaced by serine residues] | the same TGF-β antagonist activity |  |  |  | 
7 | β3^25 (41-65): chemically synthesized peptide corresponding to the 41st to 65th amino acid residues of TGF-β3 (ANFCSGPCPYLRSADTTHSTVLGLY; listed as Homo Sapiens) |  | block | block | inhibit | 
